Converted amounts (≈) assume the structure as drawn. “And” between values parts separate entries of the source, which are not always exact repeats. Equal entries are not always repeated. Where a SMILES comes first, the peptide text is derived from it. Bridges are numbered along the chain shown (N, C = ends). [ ]: non-standard residue; d: D form. The star is where a group is joined. Hexanoyl(3R-OH,5-Me) = CC(C)C[C@@H](O)CC(=O)*; dNMeF = CN[C@H](Cc1ccccc1)C(=O)O; dOrn = NCCC[C@@H](N)C(=O)O
Experiments:
[1] = test system: Staphylococcus aureus MSSA1; conditions: 10% BCS
Procedure: Evaluation of antimicrobial spectra of peptides. The MIC assay was performed according to the Clinical and Laboratory Standards Institute protocols. The antimicrobial activities of the peptides were measured using the broth microdilution method.1 Serial dilutions of peptides were prepared in cation adjusted Müller Hinton Broth. Each dilution (100 µL) was dispensed to each well of the round-bottom plate to obtain final concentrations ranging from 64 µg/m L to 0.0075 µg/m L. Bacteria were grown at 37 °C overnight on Tryptic Soy Broth or Müller Hinton Broth agar plates. Bacterial inoculum was prepared by direct suspension of the colonies in 0.9% saline, and adjusted to obtain OD 625 0.08–0.13 using a spectrophotometer UV -1280 (Shimadzu). The resultant suspension was diluted with cation adjusted Müller Hinton Broth (1/20). The resultant mixture (10 µL) was inoculated to each well of the plates (approximately 5 ×10^4 CFU/well ), mixed, and incubated at 37 °C for 18 h. The MIC value was determined as the minimum concentration that inhibited growth of bacteria. To evaluate the antimicrobial activities of peptides in the presence of serum, 10% bovine calf serum in cation adjusted Müller Hinton Broth was used.

[2] = On-bead menaquinone complexation assay (fluorescence of 2H); type: binding; conditions: single library bead (hit beads >1000 a.u.), average of three readings
Procedure: Next, the feasibility of the on-bead complexation assay was assessed using bead-linked lysocin E 30 and MK-4 (2). Our initial assay based on the finding that 1 and 2 form a red precipitate upon complexation (Supplementary Fig. 2) was not robust, because the magnitude of the red color was not proportional to the amount of captured 2 (Fig. 2b, c). We therefore developed a fluorescence-based method for quantifying 2 by reducing its naphthoquinone moiety to fluorescent hydroquinone 2H. One bead of 30 was incubated with 2 in MeOH, washed by MeOH in a microplate well, and then the bead-bound 2 was eluted under more forcing hydrophobic conditions (n-BuOH at 50 °C). The eluate containing 2 was treated with NaBH4 in n-BuOH to produce 2H[46]. The fluorescence intensity of 2H was evaluated to determine the quantity of 2 bound to one bead of 30. The method was found with a small margin of error (1026 ± 64 a.u.), indicating its high accuracy (Fig. 2a and Supplementary Fig. 3). Importantly, the structure of 1 remained intact during the complexation assay as judged by UHPLC and mass analyses.
General procedures for menaquinone complexation assay. To the bead-linked lysocin E analogues in LibraTube was added a solution of menaquinone-4 (2) in MeOH (10 mM, 1.0 mL/1000 beads). The mixture was incubated at room temperature for 12 h. A suspension of the beads in MeOH (200 beads/200 µL) was transferred to a 2.0 mL microtube.
Each bead in the microtube was transferred to each well of a 96-well filtration plate (278011, Thermo Fisher Scientific, 1 bead/well) with the solution of 2 (20 µL/bead) using a micropipette. To each well was added MeOH (400 µL), and the beads was filtered by gravity flow (× 3). The beads in the plate were dried under vacuum for 0.5–1 h. The dried beads were transferred to a 96-well PCR plate (652270, Greiner bio-one, 1 bead/well) with MeOH (20 µL/well) using a micropipette. The solution was removed under a stream of Ar at 40 °C to give the 2-bound bead-linked peptides.
To the 2-bound bead-linked peptides in the plate was added n-BuOH (30 µL/well) at room temperature .
The suspension was incubated at 50 °C for 1 h. The resultant mixture in the plate was centrifuged at 3500 × g at room temperature for 10 sec . The supernatant in each well was transferred to the corresponding well of a black polystyrene flat -bottom 96-well plate (655086, Greiner bio-one). The solution was concentrated under a stream of Ar at 40 °C to give the eluted 2.
To the above eluted 2 in the plate was added n-BuOH (25 µL/well) at room temperature. The plate was vortexed at room temperature for 10 min. To the resultant solution was added a solution of NaBH4 in n-BuOH (1.0 mM, 25 µL/well). The plate was vortexed at room temperature for 10 min. The fluorescence of menahydroquinone (2H, Ex. 250 nm/Em. 430 nm) of each well was measured at room temperature every 3 min (0, 3, and 6 min) on Gemini EM microplate reader (Molecular Devices) . The three fluorescence intensities of each bead were averaged and plotted against the bead number.
Evaluation of menaquinone complexation activities of the selected bead-linked peptides. Bead-linked peptides 30, BLP1, and BLP2 were synthesized according to the above described procedures (loading rate:
0.222 mmol/g). The bead-linked peptides were subjected to the MK complexation assay described above.
The obtained fluorescent intensities of 2H (arbitrary unit) were 1026 ± 64 for 30, 396 ± 27 for BLP1, 72.9 ± 2.0 for BLP2, and 41.6 ± 0.1 for background adsorption (no bead), respectively (Supplementary Figure 3).

MRSA4 = type: cell-based, Staphylococcus aureus; conditions: 18 h
Procedure: Antimicrobial activity assay of bead-derived peptides. […]
plate was added DMSO (1 µL/well). […]
precipitation of the grown cells was examined.
Evaluation of antimicrobial spectra of peptides. The MIC assay was performed according to the Clinical and Laboratory Standards Institute protocols. The antimicrobial activities of the peptides were measured […]
Soy Broth or Müller Hinton Broth agar plates. Bacterial inoculum was prepared by direct suspension of the […]
and incubated at 37 °C for 18 h. […]
inhibited growth of bacteria.

SMILES | antimicrobial activity relative to parent 1 [1] | fluorescence intensity of 2H ([2]; listed as KLVI) | MIC (MRSA4) | fluorescence intensity of 2H [2] | fluorescence intensity of 2H ([2]; listed as YLOI)
CC[C@H](C)[C@@H]1NC(=O)[C@@H](Cc2c[nH]c3ccccc23)NC(=O)[C@@H](C(C)C)NC(=O)[C@H](CCC(=O)O)NC(=O)[C@@H](CCCNC(=N)N)NC(=O)[C@H](CC(C)C)NC(=O)[C@@H](Cc2ccccc2)N(C)C(=O)CNC(=O)[C@H](CCCCN)NC(=O)[C@@H](CCCNC(=N)N)NC(=O)[C@@H](NC(=O)C[C@H](O)CC(C)C)[C@@H](C)OC(=O)[C@H]([C@@H](C)O)NC1=O [Peptide A3] ({Hexanoyl(3R-OH,5-Me)}-T[dR]KG[dNMeF]L[dR]E[dV][dW]IT; ester 1-C) | 4 fold | 1439.45 a.u. and 1379.53 a.u. | 0.125 µg/mL (≈ 0.0767 µM) | – | –
CC[C@H](C)[C@@H]1NC(=O)[C@@H](Cc2c[nH]c3ccccc23)NC(=O)[C@@H](CCCN)NC(=O)[C@H](CCC(=O)O)NC(=O)[C@@H](CCCNC(=N)N)NC(=O)[C@H](CC(C)C)NC(=O)[C@@H](Cc2ccccc2)N(C)C(=O)CNC(=O)[C@H](CC(N)=O)NC(=O)[C@@H](CCCNC(=N)N)NC(=O)[C@@H](NC(=O)C[C@H](O)CC(C)C)[C@@H](C)OC(=O)[C@H]([C@@H](C)O)NC1=O [Peptide A14] ({Hexanoyl(3R-OH,5-Me)}-T[dR]NG[dNMeF]L[dR]E[dOrn][dW]IT; ester 1-C) | – | – | – | 1470.92 a.u. | –
CC[C@H](C)[C@@H]1NC(=O)[C@@H](Cc2c[nH]c3ccccc23)NC(=O)[C@@H](CCCN)NC(=O)[C@H](CCC(=O)O)NC(=O)[C@@H](CCCNC(=N)N)NC(=O)[C@H](CC(C)C)NC(=O)[C@@H](Cc2ccccc2)N(C)C(=O)CNC(=O)[C@H](Cc2ccc(O)cc2)NC(=O)[C@@H](CCCNC(=N)N)NC(=O)[C@@H](NC(=O)C[C@H](O)CC(C)C)[C@@H](C)OC(=O)[C@H]([C@@H](C)O)NC1=O [Peptide A7] ({Hexanoyl(3R-OH,5-Me)}-T[dR]YG[dNMeF]L[dR]E[dOrn][dW]IT; ester 1-C) | – | – | – | – | 1035.66 a.u. and 1123.94 a.u.
CC(C)C[C@@H](O)CC(=O)N[C@@H]1C(=O)N[C@H](CCCNC(=N)N)C(=O)N[C@@H](C)C(=O)NCC(=O)N(C)[C@H](Cc2ccccc2)C(=O)N[C@@H](CC(C)C)C(=O)N[C@H](CCCNC(=N)N)C(=O)N[C@@H](CCC(=O)O)C(=O)N[C@H](Cc2ccc(O)cc2)C(=O)N[C@H](Cc2c[nH]c3ccccc23)C(=O)N[C@@H](Cc2ccc(O)cc2)C(=O)N[C@@H]([C@@H](C)O)C(=O)O[C@@H]1C [Peptide A15] ({Hexanoyl(3R-OH,5-Me)}-T[dR]AG[dNMeF]L[dR]E[dY][dW]YT; ester 1-C) | – | – | – | 1125.25 a.u. | –
CC[C@H](C)[C@@H]1NC(=O)[C@@H](Cc2c[nH]c3ccccc23)NC(=O)[C@@H](C(C)C)NC(=O)[C@H](CCC(=O)O)NC(=O)[C@@H](CCCNC(=N)N)NC(=O)[C@H](CC(C)C)NC(=O)[C@@H](Cc2ccccc2)N(C)C(=O)CNC(=O)[C@H](C)NC(=O)[C@@H](CCCNC(=N)N)NC(=O)[C@@H](NC(=O)C[C@H](O)CC(C)C)[C@@H](C)OC(=O)[C@H]([C@@H](C)O)NC1=O [Peptide A2] ({Hexanoyl(3R-OH,5-Me)}-T[dR]AG[dNMeF]L[dR]E[dV][dW]IT; ester 1-C) | 4 fold | – | 0.25 µg/mL (≈ 0.159 µM) | 1152.24 a.u. | –
CC[C@H](C)[C@@H]1NC(=O)[C@@H](Cc2c[nH]c3ccccc23)NC(=O)[C@@H](CCC(N)=O)NC(=O)[C@H](CCC(=O)O)NC(=O)[C@@H](CCCNC(=N)N)NC(=O)[C@H](CC(C)C)NC(=O)[C@@H](Cc2ccccc2)N(C)C(=O)CNC(=O)[C@H](C)NC(=O)[C@@H](CCCNC(=N)N)NC(=O)[C@@H](NC(=O)C[C@H](O)CC(C)C)[C@@H](C)OC(=O)[C@H]([C@@H](C)O)NC1=O [Peptide A1] ({Hexanoyl(3R-OH,5-Me)}-T[dR]AG[dNMeF]L[dR]E[dQ][dW]IT; ester 1-C) | 4 fold | – | 0.25 µg/mL (≈ 0.156 µM) | 1237.12 a.u. | –
CC[C@H](C)[C@@H]1NC(=O)[C@@H](Cc2c[nH]c3ccccc23)NC(=O)[C@@H](Cc2ccc(O)cc2)NC(=O)[C@H](CCC(=O)O)NC(=O)[C@@H](CCCNC(=N)N)NC(=O)[C@H](CC(C)C)NC(=O)[C@@H](Cc2ccccc2)N(C)C(=O)CNC(=O)[C@H](CC(=O)O)NC(=O)[C@@H](CCCNC(=N)N)NC(=O)[C@@H](NC(=O)C[C@H](O)CC(C)C)[C@@H](C)OC(=O)[C@H]([C@@H](C)O)NC1=O [Peptide A17] ({Hexanoyl(3R-OH,5-Me)}-T[dR]DG[dNMeF]L[dR]E[dY][dW]IT; ester 1-C) | – | – | – | 1396.02 a.u. | –
CC[C@H](C)[C@@H]1NC(=O)[C@@H](Cc2c[nH]c3ccccc23)NC(=O)[C@@H](CCCN)NC(=O)[C@H](CCC(=O)O)NC(=O)[C@@H](CCCNC(=N)N)NC(=O)[C@H](CC(C)C)NC(=O)[C@@H](Cc2ccccc2)N(C)C(=O)CNC(=O)[C@H](CC(=O)O)NC(=O)[C@@H](CCCNC(=N)N)NC(=O)[C@@H](NC(=O)C[C@H](O)CC(C)C)[C@@H](C)OC(=O)[C@H]([C@@H](C)O)NC1=O [Peptide A16] ({Hexanoyl(3R-OH,5-Me)}-T[dR]DG[dNMeF]L[dR]E[dOrn][dW]IT; ester 1-C) | – | – | – | 1414.45 a.u. | –

— paper PMC6611794, “Development of a high-throughput strategy for discovery of potent analogues of antibiotic lysocin E” (Nature Communications, 2019)
